Assay results: US20230348486A1, “NEAR-INFRARED EMITTING PORPHYRIN COMPOUND AND PREPARATION METHOD AND USE THEREOF” (PEKING UNIVERSITY, priority 2020, published 2023)

Legend:
[1] = system: HepG2 human liver cancer cells; assay: Cytophototoxicity test (CCK-8) under white light; assay type: cell-based; conditions: 0.5 h, white light 400-700 nm, about 6.5 mW/cm^2, 30 minutes, read-out: median lethal concentration IC50
Experimental: (§1) The cells used in the experiment included HeLa human cervical cancer cells, HepG2 human liver cancer cells, A375 human malignant melanoma cells, MCF7 human breast cancer cells, and HCT 116 human colon cancer cells. The cells were cultured in DMEM complete medium supplemented with 10% inactivated fetal bovine serum and 1% penicillin-streptomycin at 37° C. under the atmosphere of 5% carbon dioxide.
(§2) After trypsinized, the subculture HeLa cells were dispersed in the medium at appropriate concentration. Then, the dispersed HeLa cells were seeded into a poly-D-lysine modified flat-bottom 96-well plate, so that the amount of medium and the number of cells in each well were 200 µL and about 10^4, respectively, except a group of wells containing medium free of cells for blank control. After culturing the cells in the dark for 24 hours, the medium was removed, and 100 µL of fresh medium and 100 µL of pre-prepared medium solution containing molecule 6 synthesised in Example 6 were added, and then the sample was diluted to a gradient concentration of 0.1-5 µM. After culturing in the dark for another 24 hours, the medium was removed, and each well was rinsed 3 times with PBS (pH=7.4). 100µL of PBS buffer was added to each well, and irradiated
(§3) by white light (400-700 nm) with the same light intensity (about 6.5 mW/cm^2) under bromo-tungsten lamp for 30 minutes. The PBS in each well was removed and replaced with 200 µL of fresh medium to continue culturing for 24 hours. After that, the medium was removed and the wells were rinsed 3 times with PBS. Then 100 µL of 10% CCK-8 reagent (Cell Counting Kit-8) formulated with medium was added into each well to culture the cells for 2 hours. Meanwhile, 2-(2-methoxy-4-nitrophenyl)-3-(4-nitrophenyl)-5-(2,4-disulfonic acid benzene)-2H-[…] monosodium salt (WST-8) can be reduced by living cells together with electronic coupling reagents to yield a yellow product of formazan, accordingly changing the absorbance of the solution at 450 nm, and there was a direct proportional relationship between the change level and the number of living cells. The absorbance change of each well at 450 nm was measued by a microplate reader, and the cell survival rates at various culture concentrations were calculated according to the following equation: […]
(§4) wherein CV refers to the cell survival rate; As, Ac and Ab refer to the absorbance of the cells cultured with the compound, the absorbance of the cells cultured without the compound and the absorbance of the blank control, respectively.
(§5) The median lethal concentrations IC50 of molecule 6 in different cell lines were calculated according to the cell survival rates at various culture concentrations, and the results were shown as follows: […]

[2] = system: MCF7 human breast cancer cells; assay: Cytophototoxicity test (CCK-8) under white light; assay type: cell-based; conditions: 0.5 h, white light 400-700 nm, about 6.5 mW/cm^2, 30 minutes, read-out: median lethal concentration IC50
Experimental: as §1, §2, §3, §4, §5

[3] = system: HCT 116 human colon cancer cells; assay: Cytophototoxicity test (CCK-8) under white light; assay type: cell-based; conditions: HCT-116, 0.5 h, HCT116, white light 400-700 nm, about 6.5 mW/cm^2, 30 minutes, read-out: median lethal concentration IC50
Experimental: as §1, §2, §3, §4, §5

[4] = system: A375 human malignant melanoma cells; assay: Cytophototoxicity test (CCK-8) under white light; assay type: cell-based; conditions: A-375, 0.5 h, white light 400-700 nm, about 6.5 mW/cm^2, 30 minutes, read-out: median lethal concentration IC50
Experimental: as §1, §2, §3, §4, §5

[5] = system: HeLa human cervical cancer cells; assay: Cytophototoxicity test (CCK-8) under white light; assay type: cell-based; conditions: 24 h incubation in the dark, white light 400-700 nm, about 6.5 mW/cm^2, 30 minutes, CCK-8 after 24 hours, read-out: median lethal concentration IC50
Experimental: as §1, §2, §3, §4, §5

[6] = system: A375 human malignant melanoma cells; assay: Animal test of photodynamic therapy, subcutaneous tumor model; assay type: in vivo, BALB/C nude mice; conditions: skin application, 10 mg·kg^-1, light 400-700 nm, 2 weeks, FIG. 2
Experimental: BALB/C nude mice, which were 4-5 weeks old, females, 16-25 grams, were used in the in vivo experiment. Each mouse was inoculated with 100ul (5×10^6) of A375 human malignant melanoma cells subcutaneously in the right scapula, and the experiment was carried out two weeks later.
The nude mice were randomly individed to control group and skin application group with 6 mice in each group. The control group was only irradiated with light (tungsten lamp, 400-700 nm, 6.5 mW/cm^2) without administration, and the 1 mM/20 ul aqueous solution of molecule 6 was administrated to the skin application group in an amount of 10 mg·kg^-1 based on the weights of the nude mice. After administrated, the animals were protected from light for 24 hours, and then were each individually irradiated on their tumor sites for 30 minutes a day for consecutive 3 days. The nude mice were not protected from light after the treatment, and were took care in a breeding cage to observe the side effects such as skin phototoxicity appeared on each group of nude mice. After irradiated, the weights of nude mice were measured and their tumor volume were determined with vernier calipers every two days. After 2 weeks of treatment, the lumps were peeled off and weighed.

## C[N+](C)(C)c1c(F)c(F)c(-c2c3nc(c(-c4c(F)c(F)c([N+](C)(C)C)c(F)c4F)c4ccc([nH]4)c4c(nc5oc6c(F)c([N+](C)(C)C)c(F)c(F)c6c5c5ccc2[nH]5)oc2c(F)c([N+](C)(C)C)c(F)c(F)c24)C=C3)c(F)c1F [molecule 6]
[1]
  IC50: 800 ± 100 nM
[2]
  IC50: 850 ± 100 nM
[3]
  IC50: 1520 ± 200 nM
[4]
  IC50: 4750 ± 500 nM
[5]
  IC50: 2690 ± 100 nM
[6]; 6.5 mW/cm^2, 30 minutes a day for 3 days
  change of tumor size (growth of subcutaneous tumors): effectively inhibit the growth of subcutaneous tumors
[6]; 30 minutes a day for 3 days
  change of weight of the mice: no significant decrease
